Experiments:
[1] = biological target: PI3Kdelta (Homo sapiens (Human), UniProt O00329); test: HTRF PI3K biochemical assay, delta isoform; conditions: 0.3 nM enzyme, 100 uM ATP, 50 uM PIP2; form screened (neutral or TFA salt)
Protocol: (§1) HTRF PI3K Biochemical Assay to Measure Intrinsic Potency of Compound Inhibitors
(§2) This loss of signal is nonlinear with respect to both increasing product and time. This non-linear detection will impact accuracy of IC50 calculations; therefore, there is a need for a correction factor to obtain more accurate IC50 values. This correction is derived from a PIP3 standard curve run in a separate assay plate. All data were calculated using the ratio of acceptor (APC) to donor (Europium) fluorescence in each well of the assay plate. […] An IC50 was then calculated fitting the % inhibition data to the equation: % inhibition=min+(Max−min)/1+([inhibitor]/IC50)^n) where min is the % inhibition with inhibitor, max is the signal in DMSO control, and n is the Hill slope.
(§3) The biological data was collected using the methodology described above.

[2] = biological target: PI3Kalpha (Homo sapiens (Human), UniProt P42336); test: HTRF PI3K biochemical assay, alpha isoform (selectivity versus delta); conditions: ratio PI3K-alpha IC50 value/PI3K-delta IC50 value
Protocol: as §1, §2, §3
The determination of relative selectivity for a given compound is defined as the relative ratio of the (PI3K-alphaIC50 value/PI3K-delta IC50 value).

Chain of PI3Kalpha (P42336 whole entry, canonical isoform): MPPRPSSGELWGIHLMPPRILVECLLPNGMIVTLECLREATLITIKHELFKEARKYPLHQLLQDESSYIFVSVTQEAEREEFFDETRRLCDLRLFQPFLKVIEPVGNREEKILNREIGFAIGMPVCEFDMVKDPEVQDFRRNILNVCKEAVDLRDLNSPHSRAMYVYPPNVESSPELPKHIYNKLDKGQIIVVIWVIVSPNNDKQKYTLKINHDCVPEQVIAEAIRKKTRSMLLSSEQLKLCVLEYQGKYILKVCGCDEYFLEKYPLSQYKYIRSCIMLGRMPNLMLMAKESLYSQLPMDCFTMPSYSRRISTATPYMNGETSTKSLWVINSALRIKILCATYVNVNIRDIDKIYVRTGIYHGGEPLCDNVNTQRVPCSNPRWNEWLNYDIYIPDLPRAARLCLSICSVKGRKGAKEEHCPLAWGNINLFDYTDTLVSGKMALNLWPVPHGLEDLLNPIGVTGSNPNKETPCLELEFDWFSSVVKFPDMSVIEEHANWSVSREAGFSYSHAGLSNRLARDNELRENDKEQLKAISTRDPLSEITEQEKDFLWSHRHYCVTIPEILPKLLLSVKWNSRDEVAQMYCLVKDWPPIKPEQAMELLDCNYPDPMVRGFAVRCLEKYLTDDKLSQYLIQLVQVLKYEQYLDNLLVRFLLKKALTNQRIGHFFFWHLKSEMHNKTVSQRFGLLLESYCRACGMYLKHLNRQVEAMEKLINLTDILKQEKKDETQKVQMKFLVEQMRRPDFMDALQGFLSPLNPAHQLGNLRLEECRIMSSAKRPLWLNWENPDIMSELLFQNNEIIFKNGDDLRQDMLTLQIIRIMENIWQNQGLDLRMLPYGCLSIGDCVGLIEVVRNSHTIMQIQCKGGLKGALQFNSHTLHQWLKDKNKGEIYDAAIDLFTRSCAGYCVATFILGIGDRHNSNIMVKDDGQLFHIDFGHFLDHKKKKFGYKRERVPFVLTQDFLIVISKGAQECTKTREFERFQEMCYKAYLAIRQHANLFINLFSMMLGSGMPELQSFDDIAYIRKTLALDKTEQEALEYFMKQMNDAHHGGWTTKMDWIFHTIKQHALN
Chain of PI3Kalpha (P27986 whole entry partner, canonical isoform): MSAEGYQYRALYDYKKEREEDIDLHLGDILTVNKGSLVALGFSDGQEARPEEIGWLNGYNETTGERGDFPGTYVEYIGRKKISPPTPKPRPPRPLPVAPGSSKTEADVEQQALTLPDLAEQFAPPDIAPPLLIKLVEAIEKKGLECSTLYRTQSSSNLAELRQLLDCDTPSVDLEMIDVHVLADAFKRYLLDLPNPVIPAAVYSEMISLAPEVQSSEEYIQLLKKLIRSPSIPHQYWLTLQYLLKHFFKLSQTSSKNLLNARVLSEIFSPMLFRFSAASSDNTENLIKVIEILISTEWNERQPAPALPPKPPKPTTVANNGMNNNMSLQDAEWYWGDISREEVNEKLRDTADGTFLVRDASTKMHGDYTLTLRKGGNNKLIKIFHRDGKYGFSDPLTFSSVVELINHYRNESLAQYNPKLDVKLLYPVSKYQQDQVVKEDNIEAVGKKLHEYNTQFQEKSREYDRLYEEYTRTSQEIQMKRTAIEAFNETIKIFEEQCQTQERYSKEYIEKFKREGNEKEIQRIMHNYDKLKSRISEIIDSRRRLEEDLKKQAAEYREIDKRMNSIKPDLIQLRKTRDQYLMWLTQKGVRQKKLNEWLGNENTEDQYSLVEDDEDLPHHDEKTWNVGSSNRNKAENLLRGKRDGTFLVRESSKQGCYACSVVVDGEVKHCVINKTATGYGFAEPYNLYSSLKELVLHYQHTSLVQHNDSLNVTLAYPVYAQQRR
Chain of PI3Kdelta (O00329 whole entry, canonical isoform): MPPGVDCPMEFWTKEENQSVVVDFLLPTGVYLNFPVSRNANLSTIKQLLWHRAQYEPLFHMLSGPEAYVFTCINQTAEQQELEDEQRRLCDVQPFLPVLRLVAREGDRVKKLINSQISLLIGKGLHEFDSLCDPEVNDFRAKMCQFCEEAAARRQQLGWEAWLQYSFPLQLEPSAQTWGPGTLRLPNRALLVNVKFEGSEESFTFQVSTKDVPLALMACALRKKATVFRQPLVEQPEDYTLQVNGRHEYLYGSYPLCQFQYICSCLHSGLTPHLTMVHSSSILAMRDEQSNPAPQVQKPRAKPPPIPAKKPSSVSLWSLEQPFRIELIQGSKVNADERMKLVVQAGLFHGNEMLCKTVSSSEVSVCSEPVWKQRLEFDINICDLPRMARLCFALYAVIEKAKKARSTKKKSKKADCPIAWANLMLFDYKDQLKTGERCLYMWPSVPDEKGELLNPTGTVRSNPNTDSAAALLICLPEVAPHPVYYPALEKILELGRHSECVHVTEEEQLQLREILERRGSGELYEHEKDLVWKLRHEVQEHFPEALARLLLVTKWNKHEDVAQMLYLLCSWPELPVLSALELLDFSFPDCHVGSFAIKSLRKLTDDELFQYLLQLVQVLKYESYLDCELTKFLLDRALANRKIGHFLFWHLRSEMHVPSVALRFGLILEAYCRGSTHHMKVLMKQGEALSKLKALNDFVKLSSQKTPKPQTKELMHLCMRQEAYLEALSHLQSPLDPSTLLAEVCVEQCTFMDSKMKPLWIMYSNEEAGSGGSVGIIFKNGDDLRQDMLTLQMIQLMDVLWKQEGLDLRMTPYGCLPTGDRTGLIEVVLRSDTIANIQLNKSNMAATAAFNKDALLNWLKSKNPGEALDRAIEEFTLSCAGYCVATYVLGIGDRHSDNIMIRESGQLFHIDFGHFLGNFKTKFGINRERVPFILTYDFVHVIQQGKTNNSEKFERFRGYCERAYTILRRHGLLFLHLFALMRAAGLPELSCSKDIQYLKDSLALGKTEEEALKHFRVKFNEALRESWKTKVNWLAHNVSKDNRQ
Chain of PI3Kdelta (P27986 whole entry partner, canonical isoform): as the sequence (P27986 whole entry partner, canonical isoform) above

IC50 [1] | Relative Selectivity versus PI3Kalpha [2] | Structure (SMILES)
4 nM | >10 | CCn1c(-c2cnc(C)nc2)nc2c(-c3ccc4c(c3)C3(CCCN3S(=O)(=O)C(F)(F)F)C(=O)N4)ncnc21 (single isomer, unassigned) [Compound 3-22, (R or S)-5-(9-ethyl-8-(2-methylpyrimidin-5-yl)-9H-purin-6-yl)-1′-((trifluoromethyl)sulfonyl)spiro[indoline-3,2′-pyrrolidine]-2-one]
80 nM | >10 | CCn1c(-c2cnc(C)nc2)nc2c(-c3ccc4c(c3)C(C)(CC)C(=O)N4)ncnc21 (single isomer, unassigned) [Compound 1-38, (R or S)-3-ethyl-5-(9-ethyl-8-(2-methylpyrimidin-5-yl)-9H-purin-6-yl)-3-methylindolin-2-one]
1 nM | >10 | CCn1c(-c2cnc(C)nc2)nc2c(-c3ccc4c(c3)C(C)(NCC(C)C)C(=O)N4)ncnc21 (single isomer, unassigned) [Compound 2-66, (R or S)-5-(9-ethyl-8-(2-methylpyrimidin-5-yl)-9H-purin-6-yl)-3-(isobutylamino)-3-methylindolin-2-one]
37 nM | >10 | CCn1c(-c2cnc(C)nc2)nc2c(-c3ccc4oc(=O)n(C(C)c5ccccc5)c4c3)ncnc21 (single isomer, unassigned) [Compound 5-2, (R or S)-5-[9-ethyl-8-(2-methylpyrimidin-5-yl)-9H-purin-6-yl]-3-(1-phenylethyl)-1,3-benzoxazol-2(3H)-one]
5 nM | >10 | CCN1C(=O)C2(CCCN2C(=O)C2CC2)c2cc(-c3ncnc4c3nc(-c3cnc(C)nc3)n4CC)ccc21 (single isomer, unassigned) [Compound 3-9, (R or S)-1′-(cyclopropanecarbonyl)-1-ethyl-5-(9-ethyl-8-(2-methylpyrimidin-5-yl)-9H-purin-6-yl)spiro[indoline-3,2′-pyrrolidin]-2-one]
5 nM | >10 | CCn1c(-c2cnc(C)nc2)nc2c(-c3ccc4c(c3)C(C)(N[C@@H](C)C3CC3)C(=O)N4)ncnc21 (single isomer, unassigned) [Compound 2-12, 3-{[(1S)-1-cyclopropylethyl]amino}-5-[9-ethyl-8-(2-methylpyrimidin-5-yl)-9H-purin-6-yl]-3(R or S)-methyl-1,3-dihydro-2H-indol-2-one]
9 nM | >10 | CCN1CCCC12C(=O)Nc1ccc(-c3ncnc4c3nc(-c3cnc(C)nc3)n4CC)cc12 (single isomer, unassigned) [Compound 3-27, (R or S)-1′-ethyl-5-(9-ethyl-8-(2-methylpyrimidin-5-yl)-9H-purin-6-yl)spiro[indoline-3,2′-pyrrolidin]-2-one]
85 nM | >10 | CCn1c(-c2cnc(C)nc2)nc2c(-c3ccc4c(c3)C(C)(CC)C(=O)N4)ncnc21 (single isomer, unassigned) [Compound 1-39, (R or S)-3-ethyl-5-(9-ethyl-8-(2-methylpyrimidin-5-yl)-9H-purin-6-yl)-3-methylindolin-2-one]
15 nM | >10 | CCn1c(-c2cnc(C)nc2)nc2c(-c3ccc4c(c3)C(C)(CC3(C)COC3)C(=O)N4)ncnc21 (single isomer, unassigned) [Compound 1-6, (R or S)-5-[9-ethyl-8-(2-methylpyrimidin-5-yl)-9H-purin-6-yl]-3-methyl-3-[(3-methyloxetan-3-yl)methyl]-1,3-dihydro-2H-indol-2-one]
0.7 nM | >10 | CCn1c(-c2cnc(C)nc2)nc2c(-c3ccc4c(c3)C3(CCCN3S(C)(=O)=O)C(=O)N4)ncnc21 (single isomer, unassigned) [Compound 3-19, (R or S)-5-(9-ethyl-8-(2-methylpyrimidin-5-yl)-9H-purin-6-yl)-1′-(methylsulfonyl)spiro[indoline-3,2′-pyrrolidin]-2-one]
26 nM | >10 | CCn1c(-c2cnc(C)nc2)nc2c(-c3ccc4c(c3)C(C)(NC[C@H]3CCCO3)C(=O)N4)ncnc21 (mixture of isomers) [Compound 2-22, 5-[9-ethyl-8-(2-methylpyrimidin-5-yl)-9H-purin-6-yl]-3(R and S)-methyl-3-{[(2R)-tetrahydrofuran-2-ylmethyl]amino}-1,3-dihydro-2H-indol-2-one]
2 nM | >10 | Cc1ncc(-c2nc3c(-c4ccc5c(c4)C4(CCCN4C(C)C)C(=O)N5)ncnc3n2C)cn1 (single isomer, unassigned) [Compound 3-14, (R or S)-1′-isopropyl-5-(9-methyl-8-(2-methylpyrimidin-5-yl)-9H-purin-6-yl)spiro[indoline-3,2′-pyrrolidin]-2-one]
169 nM | >10 | CCn1c(-c2cnc(C)nc2)nc2c(-c3ccc4c(c3)C3(CCCN3)C(=O)N4)ncnc21 (single isomer, unassigned) [Compound 3-32, (R or S)-5-(9-ethyl-8-(2-methylpyrimidin-5-yl)-9H-purin-6-yl)spiro[indoline-3,2′-pyrrolidin]-2-one]
238 nM | >10 | CCn1c(-c2cnc(C)nc2)nc2c(-c3ccc4c(c3)C(C)(N3CC(OC)C3)C(=O)N4)ncnc21 (single isomer, unassigned) [Compound 2-78, (R or S)-5-(9-ethyl-8-(2-methylpyrimidin-5-yl)-9H-purin-6-yl)-3-(3-methoxyazetidin-1-yl)-3-methylindolin-2-one]
177 nM | 3 | CCn1c(-c2cnc(C)nc2)nc2c(-c3ccc4c(c3)C(C)(CC3(C)COC3)C(=O)N4)ncnc21 (single isomer, unassigned) [Compound 1-5, (R or S)-5-[9-ethyl-8-(2-methylpyrimidin-5-yl)-9H-purin-6-yl]-3-methyl-3-[(3-methyloxetan-3-yl)methyl]-1,3-dihydro-2H-indol-2-one]
128 nM | >10 | CCn1c(-c2cnc(C)nc2)nc2c(-c3ccc4c(c3)C(C)(CC(C)C)NC4=O)ncnc21 (single isomer, unassigned) [Compound 4-8, (R or S)-5-[9-ethyl-8-(2-methylpyrimidin-5-yl)-9H-purin-6-yl]-3-methyl-3-(2-methylpropyl)-2,3-dihydro-1H-isoindol-1-one]
10 nM | >10 | CCn1c(-c2cnc(C)nc2)nc2c(-c3ccc4c(c3)C(C)(N[C@H](C)C3CCC3)C(=O)N4)ncnc21 (mixture of isomers) [Compound 2-17, 3-{[(1R)-1-cyclobutylethyl]amino}-5-[9-ethyl-8-(2-methylpyrimidin-5-yl)-9H-purin-6-yl]-3(R and S)-methyl-1,3-dihydro-2H-indol-2-one]
194 nM | >10 | CCn1c(-c2cnc(C)nc2)nc2c(-c3ccc4c(c3)C(C)(CC3CC3)C(=O)N4C)ncnc21 (single isomer, unassigned) [Compound 1-10, 3-(Cyclopropylmethyl)-5-(9-ethyl-8-(2-methylpyrimidin-5-yl)-9H-purin-6-yl)-1,3-dimethylindolin-2-one]
73 nM | >10 | CCn1c(-c2cnc(C)nc2)nc2c(-c3ccc4c(c3)C(C)(N3CC(C)(C#N)C3)C(=O)N4)ncnc21 (single isomer, unassigned) [Compound 2-5, (R or S)-1-{5-[9-ethyl-8-(2-methylpyrimidin-5-yl)-9H-purin-6-yl]-3-methyl-2-oxo-2,3-dihydro-1H-indol-3-yl}-3-methylazetidine-3-carbonitrile]
5 nM | >10 | CCn1c(C(F)F)nc2c(-c3ccc4c(c3)C3(CCCN3C(=O)C3CC3)C(=O)N4)ncnc21 (single isomer, unassigned) [Compound 3-15, (R or S)-1′-(cyclopropanecarbonyl)-5-(8-(difluoromethyl)-9-ethyl-9H-purin-6-yl)spiro[indoline-3,2′-pyrrolidin]-2-one]
 | >10 | CCn1c(-c2cnc(C)nc2)nc2c(-c3ccc4c(c3)CN(C)S4(=O)=O)ncnc21 [Compound 4-14, 5-(9-ethyl-8-(2-methylpyrimidin-5-yl)-9H-purin-6-yl)-2-methyl-2,3-dihydrobenzo[d]isothiazole 1,1-dioxide]
 | >10 | CCn1c(-c2cnc(C)nc2)nc2c(-c3ccc4c(c3)C3(CCCC3)C(=O)N4)ncnc21 [Compound 3-34, 5′-(9-ethyl-8-(2-methylpyrimidin-5-yl)-9H-purin-6-yl)spiro[cyclopentane-1,3′-indolin]-2′-one]
 | >10 | CCn1c(-c2cnc(C)nc2)nc2c(-c3ccc4oc(=O)n(Cc5ccccc5)c4c3)ncnc21 [Compound 5-3, 3-benzyl-5-[9-ethyl-8-(2-methylpyrimidin-5-yl)-9H-purin-6-yl]-1,3-benzoxazol-2(3H)-one]

Structure (SMILES) | IC50 [1] | Relative Selectivity versus PI3Kalpha [2]
CCn1c(-c2cnc(C)nc2)nc2c(-c3ccc4c(c3)C(C)(OC3CCC3)C(=O)N4)ncnc21 (racemic) [Compound 2-74, 3-cyclobutoxy-5-(9-ethyl-8-(2-methylpyrimidin-5-yl)-9H-purin-6-yl)-3-methylindolin-2-one] |  | >10

Reference: US10544147B2, “Purine inhibitors of human phosphatidylinositol 3-kinase delta” (MERCK SHARP & DOHME CORP., priority 2016, dated 2020)
